Experimental findings from patent US12364755B2, “Method for obtaining globally activated monocytes” (Transimmune AG, priority 2014, dated 2025) are described below.

No end group written: not given here.

Holding throughout (assay type): cell-based, human
Data set [1] deals with platelets. Put plainly: Plasma protein influence on platelet adhesion to plates. The conditions noted are these: plates pre-coated with protein; wall shear stress 0.2 to 6.0 dyne/cm^2. On the procedure:
(§1) Platelet adhesion experiments were performed using the Vena8 flow chamber described above. Fibrinogen and fibronectin (Sigma) were dissolved in PBS to a final concentration of 200 mcg/ml. Channels of the Vena8 chips were incubated at room temperature in a humidified chamber for 2 hours with the protein solution, autologous plasma, or PBS alone. The channels were washed with 5x the volume RPMI. Platelet-rich-plasma was then perfused through the protein-coated channel at the indicated shear-stress, held constant. For each channel, still images were acquired exactly 90 seconds into the experiment at 4 pre-defined low power fields located along the flow path (fields were centered at 2500, 7500, 12500, and 17500 microns from the start point of infusion).

Data set [2] relates to MoDC. Put plainly: Cytokine quantification in culture supernatants after LPS stimulation. The settings on record: for IL-10 to IL-12p70 ratio: after LPS stimulation, untreated MoDC 6.7. On the procedure:
Non-adherent cells (purity: 66.0±4.5% CD3^+) removed during plastic adherence will now be generally referred to as lymphocytes. Lymphocytes were treated with 8-MOP (100 ng/mL) and UVA (1 J/cm^2), washed with PBS, and co-cultured in complete media at 37° C. and 5% CO2 with either PUVA-treated or untreated-MoDC in a ratio of 5 or 10 lymphocytes to 1 MoDC. MoDC treated for 24 hr with 100 nM dexamethasone (Sigma) served as the positive control group. After 24 hr, cells were harvested and MoDC were re-purified.
(§2) Culture supernatants were analyzed in a multiplex format utilizing magnetic beads to IL-6, IL-8, IL-10, IL-12p70, TNF-a, RANTES, MCP-1, and MIP-1β (BioRad Laboratories). For siRNA experiments, supernatants were analyzed with enzyme-linked immunosorbent assay (ELISA) kits for IL-10 (R&D Systems) and IL-12p70 (Enzo Life Science). All samples and standards were run in duplicate and analyzed using the LUMINEX 200 (LUMINEX), or the BioTek EL800 (BioTek).

Data set [3] concerns GILZ. Put plainly: siRNA-mediated knockdown of GILZ in MoDC. The conditions noted are these: siRNA experiments, ELISA. On the procedure: Silencer select pre-designed and validated GILZ siRNA (Invitrogen), with off-target prediction algorithms, was used to knockdown GILZ expression. Mo-DC were transfected using Lipofectamine RNAiMAX Reagent (Invitrogen). RNAi duplex and lipofectamine reagent were incubated together for 20 min, then added to MoDC cultures and incubated for 2 hr at 37° C. and 5% CO2. Transfected MoDC were treated in an identical fashion as described for the MoDC/lymphocyte co-cultures. MoDC were also transfected with scramble siRNA.
RNA was isolated from CD11c MoDC using QIAShredder columns (QIAGEN) and the RNeasy Mini Kit (QIAGEN) with on-column Dnase I treatment (QIAGEN). RNA yield and purity were assessed using a NanoDrop ND-1000 spectrophotometer. cDNA was obtained using the High Capacity cDNA Reverse Transcription Kit (Applied Biosystems) in a 96-well thcrmocycicr (MJ Research PTC-200). TaqMan real-time PCR was used to detect transcripts of GILZ, CD80, and CD86. Primers and probes were obtained as pre-designed and validated Taqman Gene Expression Assays (Applied Biosystems). SYBR green real-time PCR (Applied Biosystems) was used to detect transcripts of IL-12, IL-10, IL-6, TNF-alpha, and TGF-β. Primers were designed to span intron junctions using Primer3Plus. Primer melting curves were obtained to confirm a single product. HPRT-1 and GAPDH were used as reference genes. Samples were run in triplicate on a 7500 Real Time PCR System (Applied Biosystems). The delta-delta C(t) method was used to calculate the fold change.
as §2

Data set [4] concerns GILZ. The experiment in a line: GILZ mRNA expression in CD11c+ MoDC (real-time PCR). The conditions noted are these: for GILZ up-regulation, fold change relative to untreated MoDC cultured alone: 24 hr after co-culture/treatment (FIG. 13B). On the procedure:
The tubes emitted UVA light ranging from 320 to 400 nm. The UVA irradiance (power, W/m^2) was measured using a photodiode. […] Non-adherent cells (purity: 66.0±4.5% CD3^+) removed during plastic adherence will now be generally referred to as lymphocytes. […] RNA yield and purity were assessed using a NanoDrop ND-1000 spectrophotometer. cDNA was obtained using the High Capacity cDNA Reverse Transcription Kit (Applied Biosystems) in a 96-well thcrmocycicr (MJ Research PTC-200). TaqMan real-time PCR was used to detect transcripts of GILZ, CD80, and CD86. Primers and probes were obtained as pre-designed and validated Taqman Gene Expression Assays (Applied Biosystems). SYBR green real-time PCR (Applied Biosystems) was used to detect transcripts of IL-12, IL-10, IL-6, TNF-alpha, and TGF-β. Primers were designed to span intron junctions using Primer3Plus. Primer melting curves were obtained to confirm a single product. HPRT-1 and GAPDH were used as reference genes. Samples were run in triplicate on a 7500 Real Time PCR System (Applied Biosystems). The delta-delta C(t) method was used to calculate the fold change.

The test system of data set [5] is monocytes. Put plainly: Static co-culture of monocytes with platelets (DC differentiation). The settings on record: platelets activated with thrombin (2 units) vs not activated; 18 hours static culture. On the procedure:
When overnight culture was required, cells were centrifuged and resuspended in RPMI-1640 medium (GIBCO), supplemented with 15% AB serum (Gemini Bio-Products) to a final concentration of 5×10^6 cells/ml. Cells were cultured overnight for 18 hours in 12-well polystyrene tissue culture plates (2 ml per well) at 37° C. in 5% CO2.
Monoclonal antibodies for immunophenotyping included CD14 (LPS receptor; monocytes), CD11c (integrin subunit; monocytes and DC), HLA-DR (class II MHC molecule), CD83 (DC marker), CD62p (P-selectin; activated platelets), and CD61 (integrin subunit; platelets). Antibodies were obtained from Beckman Coulter (CD14, CD11c, HLADR, CD83) or Sigma (CD62p, CD61) and used at their pre-determined optimal dilutions. Background staining was established with appropriate isotype controls, and immunofluorescence was analyzed using a FC500 flow cytometer (Beckman Coulter). Two-color membrane staining was performed by adding the pre-determined optimal concentrations of both antibodies directly conjugated to FITC or PE and incubating for 20 min at 4° C., followed by washing to remove unbound antibodies. Combined membrane and cytoplasmic staining was performed following manufacturer's instructions for cell fixation and permeabilization (Intraprep kit, Beckman Coulter). […]

In data set [6] the test system is platelets. Put plainly: Platelet adhesion to fibronectin-coated plates in flow after peptide pre-treatment of platelets. The settings on record: platelets (PRP) pre-incubated with peptide 2 mM, 20 minutes. On the procedure: as §1
(§3) Some experiments involved pre-treating platelet-rich-plasma with protein fragments prior to infusion through the channels. Small RGD peptides, containing the amino-acid sequence Arg-Gly-Asp-Ser; DRG peptides, contain the amino-acid sequence Ser-Asp-Gly-Arg; or fragment 400-411 of fibrinogen, containing the amino-acid sequence His-His-Leu-Gly-Gly-Ala-Lys-Gln-Ala-Gly-Asp-Val, were incubated at a concentration of 2 mM with PRP for 20 minutes at room temperature. The PRP was then perfused through the channels as previously described.

The subject of data set [7] is platelets. The experiment in a line: Platelet adhesion to fibrinogen-coated plates in flow after peptide pre-treatment of platelets. The conditions noted are these: platelets (PRP) pre-incubated with peptide 2 mM, 20 minutes. On the procedure:
as §1, §3

Data set [8] has as its system monocyte-platelet interactions. The experiment in a line: Monocyte-platelet interactions in flow (receptor-ligand studies). The conditions noted are these: wall shear stress 0.5 dyne/cm2; relative to P+RGD+ maximum. On the procedure:
Platelet-coated Vena8 channels were pre-treated with either 40 μg/ml anti-P-selectin (R&D Systems) or 40 μg/ml of an isotype control for 30 minutes at room temperature, then washed with 5× the volume RPMI. Mononuclear cell suspensions were pre-treated with either RGD or DGR peptides at a concentration of 2.5 mM. Video samples lasting 400 frames (26.3 seconds) were recorded 60 seconds after commencement of flow using a lower power field of view spanning 400 microns and centered at 7500 microns from the flow start point.

The test system of data set [9] is CD11c+ MoDC. Put plainly: Apoptosis of CD11c+ MoDC (Annexin-V/7-AAD). The settings on record: 24 hr. On the procedure:
Cultures were incubated with 8-MOP (Uvadex, 20 μg/mL) for 30 min in the dark, and then irradiated with a desktop UVA light box containing a series of 12 linear fluorescent tubes. The tubes emitted UVA light ranging from 320 to 400 nm. The UVA irradiance (power, W/m^2) was measured using a photodiode. Given a measured irradiance and the absorption properties of the various components of the system, it was possible to determine the time (sec) needed to expose the cells to deliver a given dose of UVA radiation (J/cm^2).
(§4) Monoclonal antibodies included HLA-DR, CD80, CD83, CD3, CD86, CD14, CD11c and GILZ. Antibodies were obtained from Beckman-Coulter and eBioscience and were used at their pre-determined optimal dilutions. Apoptosis was assessed using the Annexin-V Apoptosis Detection Kit (eBioscience), with Annexin-V recognizing phosphatidylserine (PS) on the surface of apoptotic cells. 7-AAD substituted for PI as the cell viability dye. Cells displaying an Annexin-V^+/7-AAD^− phenotype were classified as early apoptotic cells, and cells displaying an Annexin-V^+/7-AAD^+ phenotype were classified as late apoptotic cells. Dual membrane and intracytoplasmic staining was performed using the lntraPrep fix and permeabilization kit (Beckman-Coulter). Background staining was established with appropriate isotype and fluorescence minus one controls. Immunofluorescence was analyzed using a FACSCalibur L (BD Biosciences) within 2 hr of fixation with 2% paraformaldehyde. A minimum of 10,000 events were collected for each group.

Data set [10] concerns lymphocytes. Put plainly: Apoptosis of lymphocytes (Annexin-V/7-AAD). On the procedure:
Lymphocytes were treated with 8-MOP (100 ng/mL) and UVA (1 J/cm^2), washed with PBS, and co-cultured in complete media at 37° C. and 5% CO2 with either PUVA-treated or untreated-MoDC in a ratio of 5 or 10 lymphocytes to 1 MoDC. MoDC treated for 24 hr with 100 nM dexamethasone (Sigma) served as the positive control group. After 24 hr, cells were harvested and MoDC were re-purified.
as §4

For data set [11], the system named is lymphocytes. The experiment in a line: Apoptosis of ECP-processed lymphocytes after overnight incubation. The conditions noted are these: UVA-activated 8-MOP.
Where [12] appears, read: 24 hr after LPS stimulation, multiplex immunoassay.
Setting [13] is: 100 ng/mL 8-MOP and 1 J/cm^2 UVA, 24 hr.

As to fibrinogen, the “platelet adhesion to coated plates in flow” value in data set [1] was “highest concentrations of platelets adhered”.
Take `C[C@@H]1C[C@H]2[C@@H]3CCC4=CC(=O)C=C[C@]4(C)[C@@]3(F)[C@@H](O)C[C@]2(C)[C@@]1(O)C(=O)CO` [dexamethasone]: in data set [2], the “IL-10 to IL-12p70 ratio” value turned out to be 67.7. In addition, in data set [3], the “IL-10 to IL-12p70 ratio, non-transfected MoDC” value is 15.3 and the “IL-10 to IL-12p70 ratio, transfected with GILZ siRNA” value was determined as 3.9. In addition, in data set [4] (100 nM dex), the “time after treatment at which GILZ is up-regulated” value is 2 h. Also, the “GILZ up-regulation, fold change relative to untreated MoDC cultured alone” value in [4] is given as 4.29 fold.
On to thrombin, for which the “monocyte differentiation (cells expressing DC markers)” value in data set [5] is reported as “did not cause a discernible difference”.
HHLGGAKQAGDV: the “platelet adhesion to fibronectin-coated plates” value in data set [6] is recorded as “had no effect”. Further, the “platelet adhesion to fibrinogen-coated plates” value in [7] is recorded as “significantly decreased”.
Regarding “Arg-Gly-Asp-Ser (RGDS; printed: Arg-Gly-Asp-Ser) [RGD peptides]”, in data set [6], the “platelet adhesion to fibronectin-coated plates” value is listed as “decreased adhesion significantly”. For the same compound, the “short-duration monocyte-platelet interactions (less than 3 seconds)” value in [8] is recorded as “did not significantly alter”. Besides, the “platelet adhesion to fibrinogen-coated plates” value in [7] is on record as “not significantly altered”.
In the case of 8-methoxypsoralen [8-MOP], in data set [2] (setting [12]), the “production of IL-10” value is “increased production of IL-10”; the “production of pro-inflammatory cytokines and chemokines” value was “decreased production of all pro-inflammatory cytokines and chemokines tested, except TNF-α and IFN-γ”. Moreover, in [2], the “IL-10 to IL-12p70 ratio” value is given as 38.7. Besides, in data set [3], the “IL-10 to IL-12p70 ratio, non-transfected MoDC” value stood at 8.4 and the “IL-10 to IL-12p70 ratio, transfected with GILZ siRNA” value was 2.9. In addition, in data set [4], the “GILZ up-regulation, fold change relative to untreated MoDC cultured alone” value amounted to 2.78 fold.
Take `COc1c2occc2cc2ccc(=O)oc12` [8-MOP, 8-methoxypsoralen]: in data set [9] (1 J/cm^2, all doses of 8-MOP tested), the “percentage of late apoptotic CD11c+ cells” value is recorded as “less than 13%”. In [9] (2 J/cm^2, all doses of 8-MOP tested), the “percentage of late apoptotic CD11c+ cells” value is “less than 16%”. For the same compound, in data set [9] (2 J/cm^2 and 200 ng/mL), the “percentage of early apoptotic CD11c+ cells compared to untreated MoDC” value is “increase”. For the same compound, in data set [10] (setting [13]), the “percentage of early apoptotic lymphocytes” value is listed as 44.3% and the “percentage of late apoptotic lymphocytes” value stood at 33.7%. Besides, the “time after treatment at which lymphocytes display Annexin-V” value in data set [10] (1 J/cm^2 and 100 ng/mL) is 2 h. The “8-MOP concentration needed for an effect on GILZ expression” value in data set [4] (0.5 J/cm^2 UVA) came to 200 ng/mL. The “time GILZ remained significantly elevated” value in data set [4] (8-MOP and UVA light (FIG. 10F)) was 72 h. For the same compound, in data set [4] (24 hr, relative to untreated MoDC (FIG. 10E)), the “GILZ expression increase, combination of 8-MOP and UVA light” value was 5.5 fold. Moreover, in data set [4] (without UVA light, 24 hr (FIG. 10E)), the “GILZ expression, 8-MOP alone” value is recorded as “did not effect GILZ expression”. Also, the ECP-processed lymphocytes apoptotic in data set [11] is recorded as 99%.
